pIC50: −log10 of the molar value.
What was measured:
[1] = target: T1, ATP-binding cassette (ABC) subfamily G member 2 (ABCG2) (Homo sapiens, UniProt Q9UNQ0); assay: flow cytometry inhibition of pheophorbide A efflux in ABCG2-transfected HEK293 cells (also S1-M1-80 and H460-MX20); assay type: cell-based
T1 construct: ABCG2-transfected R482-HEK293 cells
T1 sequence (Q9UNQ0 1-655): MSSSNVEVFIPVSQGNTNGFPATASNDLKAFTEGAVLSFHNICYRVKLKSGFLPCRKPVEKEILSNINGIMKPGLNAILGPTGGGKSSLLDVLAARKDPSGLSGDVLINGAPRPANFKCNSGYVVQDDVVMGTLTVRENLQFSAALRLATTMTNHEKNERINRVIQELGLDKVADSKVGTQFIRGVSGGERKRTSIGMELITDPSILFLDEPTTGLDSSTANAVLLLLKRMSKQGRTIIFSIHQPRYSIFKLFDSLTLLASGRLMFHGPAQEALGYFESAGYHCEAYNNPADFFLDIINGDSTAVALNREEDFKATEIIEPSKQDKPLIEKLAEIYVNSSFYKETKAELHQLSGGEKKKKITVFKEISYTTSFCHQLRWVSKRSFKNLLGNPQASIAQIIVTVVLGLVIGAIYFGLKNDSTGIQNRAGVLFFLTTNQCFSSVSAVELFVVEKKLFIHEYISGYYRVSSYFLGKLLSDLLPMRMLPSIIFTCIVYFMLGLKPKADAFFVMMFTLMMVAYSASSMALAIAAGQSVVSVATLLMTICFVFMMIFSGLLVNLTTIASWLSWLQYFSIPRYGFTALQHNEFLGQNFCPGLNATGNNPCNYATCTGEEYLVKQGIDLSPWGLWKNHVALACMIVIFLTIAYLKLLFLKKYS
Excerpt: flow cytometry inhibition of pheophorbide A efflux in ABCG2-transfected HEK293 cells (also S1-M1-80 and H460-MX20) on ATP-binding cassette (ABC) subfamily G member 2 (ABCG2) | TP-3654 inhibited ABCG2-mediated efflux of PhA in ABCG2-transfected R482-HEK293 cells

[2] = target: T1, ATP-binding cassette (ABC) subfamily G member 2 (ABCG2); assay: flow cytometry of ABCG2-mediated efflux in parental and ABCG2-transfected HEK293 cells; assay type: cell-based

With `CC(C)(O)[C@H]1CC[C@H](Nc2ccc3ncc(-c4cccc(C(F)(F)F)c4)n3n2)CC1` [TP-3654] the pIC50 [1] was ~6.85.

`C=Cc1c(C)c2cc3nc(c4c5[nH]c(cc6nc(cc1[nH]2)C(C)=C6CC)c(C)c5C(=O)[C@@H]4C(=O)OC)[C@@H](CCC(=O)O)[C@@H]3C` [pheophorbide A] was tested, and the “flow cytometry of ABCG2-mediated efflux in parental and ABCG2-transfected HEK293” value [2] was “Flow cytometry analysis of PhA accumulation in parental HEK293 cells and ABCG2-transfected R482-HEK293 cells”.

— paper PMC8431370, “The Second-Generation PIM Kinase Inhibitor TP-3654 Resensitizes ABCG2-Overexpressing Multidrug-Resistant Cancer Cells to Cytotoxic Anticancer Drugs” (International Journal of Molecular Sciences, 2021)
